Literature values as cited in patent publication US20230099183A1, “STEVIOL GLYCOSIDE AND GLYCERIN FORMULATIONS FOR FOOD AND BEVERAGES” (Sweegen, Inc., priority 2021, published 2023).

Legend:
[1] = background statement on natural steviol glycosides
[2] = background statement; concentration in food or beverage

## C=C1C[C@@]23CC[C@H]4[C@@](C)(CCC[C@@]4(C)C(=O)O[C@@H]4O[C@H](CO)[C@@H](O)[C@H](O)[C@H]4O)[C@@H]2CC[C@]1(O[C@@H]1O[C@H](CO)[C@@H](O)[C@H](O)[C@H]1O[C@@H]1O[C@@H](C)[C@H](O)[C@@H](O)[C@H]1O)C3 [Dulcoside A]
[1]
  degree of sweetness, times sweeter than sucrose: about 30 times sweeter than sucrose

## C=C1C[C@@]23CC[C@H]4[C@@](C)(CCC[C@@]4(C)C(=O)O[C@@H]4O[C@H](CO)[C@@H](O)[C@H](O)[C@H]4O)[C@@H]2CC[C@]1(O[C@@H]1O[C@H](CO)[C@@H](O)[C@H](O[C@@H]2O[C@H](CO)[C@@H](O)[C@H](O)[C@H]2O)[C@H]1O[C@@H]1O[C@H](CO)[C@@H](O)[C@H](O)[C@H]1O)C3 [Reb A]
[2]
  concentration above which bitterness is perceptible: above 200 ppm

## C=C1C[C@@]23CC[C@H]4[C@@](C)(CCC[C@@]4(C)C(=O)O[C@@H]4O[C@H](CO)[C@@H](O)[C@H](O)[C@H]4O)[C@@H]2CC[C@]1(O[C@@H]1O[C@H](CO)[C@@H](O)[C@H](O)[C@H]1O[C@@H]1O[C@H](CO)[C@@H](O)[C@H](O)[C@H]1O)C3 [stevioside]
[1]
  degree of sweetness, times sweeter than sucrose: 100-150 times sweeter than sucrose

## Rebaudioside C
[1]
  degree of sweetness, times sweeter than sucrose: 40-60 times sweeter than sucrose
